According to US5128346A, “Derivatives of D-glutamic acid and D-aspartic acid” (priority 1990, dated 1992):
Where a name gives a salt, the structure may show the parent alone. Read-outs that look alike come from different tables or passages of the source.

Experiments:
Type-A CCK receptor = biological target: T1, Type-A CCK receptor (Cavia porcellus, UniProt Q63931); test: Radioligand binding, [^125 I]-BH-CCK8, Type-A CCK receptor (pancreatic membranes); parameters: species or system guinea pig
T1 construct: cortex and pancreas were removed and rinsed with ice cold saline; from tissue; host or cells: guinea pig pancreas, membranes
T1 sequence (Q63931 1-430): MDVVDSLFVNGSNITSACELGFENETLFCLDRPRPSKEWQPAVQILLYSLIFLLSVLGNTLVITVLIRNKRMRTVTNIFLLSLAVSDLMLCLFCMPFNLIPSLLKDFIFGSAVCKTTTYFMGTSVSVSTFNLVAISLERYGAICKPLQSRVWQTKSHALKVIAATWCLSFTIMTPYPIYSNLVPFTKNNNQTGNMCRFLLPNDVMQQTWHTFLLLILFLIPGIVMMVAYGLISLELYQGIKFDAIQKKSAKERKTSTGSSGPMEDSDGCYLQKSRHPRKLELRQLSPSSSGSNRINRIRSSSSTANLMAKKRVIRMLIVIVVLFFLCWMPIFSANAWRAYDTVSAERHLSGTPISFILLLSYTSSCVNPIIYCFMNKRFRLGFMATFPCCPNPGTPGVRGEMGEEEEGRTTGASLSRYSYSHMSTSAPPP
From the text: (§1) CCK8 [Asp-Tyr(SO3 H)-Met-Gly-Trp-Met-Asp-Phe-NH2 ] was purchased from Beckman Instruments (Palo Alto, Ca/) and Peptide International (Louisville, Ky.). Chymostatin, L-Try-Gly, puromycin, bestatin, EGTA, HEPES and BSA were purchased from Sigma Chemical Co. (St. Louis, Mo.). [^125 I]BH-CCK8 (specific activity, 2200 Ci/mmol) and Aquasol 2 scintillation cocktail were obtained from New England Nuclear (Boston, Ma.). Male guinea pigs, 250 to 325 g, were obtained from Scientific Small Animal Laboratory and Farm (Arlington Heights, Ill.). Collagenase, 300 units per mg, was purchased from Worthington (Frehold, N.J.)
(§2) 1. Guinea Pig Cerebral Cortical and Pancreatic Membrane Preparations
(§3) Cortical and pancreatic membrances were prepared as described (Lin and Miller; J. Pharmacol. Exp. Ther. 232, 775-780, 1985). In brief, cortex and pancreas were removed and rinsed with ice cold saline. Visible fat and connective tissues were removed from the pancreas. Tissues were weighed and homogenized separately in approximately 25 mL of ice-cold 50 mM Tris-HCl buffer, pH 7.4 at 4° C., with a Brinkman Polytron for 30 sec, setting 7. The homogenates were centrifuged for 10 min at 1075×g and pellets were discarded. The supernatants were saved and centrifuged at 38,730×g for 20 min. The resultant pellets were rehomogenized in 25 mL of 50 mM Tris-HCl buffer with a Teflon-glass homogenizer, 5 up and down strokes. The homogenates were centrifuged again at 38,730×g for 20 min. Pellets were then resuspended in 20 mM HEPES, containing 1 mM EGTA., 118 mM NaCl, 5 mM MgCl2, 100 microM bestatin, 3 microM phosphoramidon, pH 7.4 at 22° C., with a Teflon-glass homogenizer, 15 up and down strokes. Resuspension volume for the cortex was 15-18 mL per gm of original wet weight and 60 mL per gm for the pancreas.
(§4) ^125 I]Bolton-Hunter CCK8, and test compounds were diluted with HEPES-EGTA-salt buffer (see above) containing 0.5% bovine serum albumin (BSA). To 1 mL Skatron polystyrene tubes were added 25 microliters of test compounds, 25 miroliters of [^125 I]BH-CCK8, and 200 microliters of membrane suspension. The final BSA concentration was 0.1%. The cortical tissues were incubated at 30° C. for 150 min and pancreatic tissues were incubated at 37° C. for 30 min. Incubations were terminated by filtration using Skatron Cell Harvester and SS32 microfiber filter mats. The specific binding of [^125 I]BH-CCK8, defined as the difference between binding in the absence and presence of 1 microM CCK8, was 85 90% of pancreas. IC50 's were determined from the Hill analysis.

guinea pig acini = test: Inhibition of CCK8-stimulated amylase release from acini; type: cell-based; settings: Cavia porcellus, 0.5 h, CCK8 3×10^-10 M, 37° C., 30 min
Description: Protocol for Amylase This assay was performed using the modified protocol of Lin et al., J. Pharmacol. Exp. Ther. 236, 734, 1986. 1. Guinea Pig Acini Preparation Guinea pig acini were prepared by the method of Bruzzone et al. (Biochem. J. 226, 621-624, 1985) as follows. Pancreas was dissected out and connective tissues and blood vessels were removed. The pancreas was cut into small pieces (2mm) by a scissor and placed in a 15 mL conical plastic tube containing 2.5 mL of Krebs Ringer HEPES (KRH) buffer plus 400 units per mL of collagenase. The composition of the KRH buffer was: HEPES, 12.5 mM: NaCl, 118 mM; KCI, 4.8 mM; CaCl2, 1 mM; […]; MgSO4, 1.2 mM; NaHCO3, 5 mM; glucose, 10 mM, pH 7.4. The buffer was supplemented with MEM vitamins, 1% MEM amino acids and 0.001% aprotinin. The tube was shaken by hand until the suspension appeared homogeneous, usually 5 to 6 min. 5 mL of the KRH, without collagenase and with 0.1% BSA, were added and the tube was centrifuged at 50×g for 35 sec. The supernatant was discarded and 6 mL of the KRH were added to the cell pellet. […] This wash procedure was repeated once. The cell pellet from the last centrifugation step was then resuspended in 15 mL of KRH containing 0.1% BSA. The contents were filtered through a dual nylon mesh, size 275 and 75 micrometers. The filtrate, containing the acini, were centrifuged at 50×for 3 min. The acini were then resuspended in 5 mL of KRH-BSA buffer for 30 min at 37° C., under 100% O2, with a change of fresh buffer at 15 min. 2. Amylase Assay After the 30 min incubation time, the acini were resuspended in 100 volumes of KRH-BSA buffer, containing 3 microM phosphoramidon and 100 microM bestatin. […] The final assay volume was 500 microliters. Tubes were vortexed and placed in a 37° C. water bath, under 100% O2, for 30 min. Afterward, tubes were centrifuged at 10,000 g for 1 min. […] The results of this assay are […]

Type-B CCK receptor = biological target: T2, Type-B CCK receptor (Cavia porcellus, UniProt H0VZC5); test: Radioligand binding, [^125 I]-BH-CCK8, Type-B CCK receptor (cerebral cortical membranes); parameters: species or system guinea pig
T2 construct: cortex and pancreas were removed and rinsed with ice cold saline; from tissue; host or cells: guinea pig cerebral cortex, membranes
T2 sequence (H0VZC5 1-426): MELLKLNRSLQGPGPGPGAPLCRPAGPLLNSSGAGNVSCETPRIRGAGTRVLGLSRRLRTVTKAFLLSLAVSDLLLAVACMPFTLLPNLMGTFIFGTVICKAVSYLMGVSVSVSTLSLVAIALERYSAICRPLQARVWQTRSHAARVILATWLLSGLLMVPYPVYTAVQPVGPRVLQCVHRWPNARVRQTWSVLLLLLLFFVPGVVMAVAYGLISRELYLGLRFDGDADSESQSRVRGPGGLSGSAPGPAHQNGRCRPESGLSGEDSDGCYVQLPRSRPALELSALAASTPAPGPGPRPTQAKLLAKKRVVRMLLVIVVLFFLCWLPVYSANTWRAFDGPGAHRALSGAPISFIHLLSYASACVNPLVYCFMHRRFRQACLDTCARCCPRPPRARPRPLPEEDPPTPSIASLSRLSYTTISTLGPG
From the text: as §1, §2, §3
as §4, with “The specific binding of [^125 I]BH-CCK8, defined as the difference between binding in the absence and presence of 1 microM CCK8, was 85 90% of pancreas.” left out

CCK8 = test: Inhibition of CCK induced gastric emptying (charcoal meal); type: in vivo; settings: 100 mg/kg p.o., CCK8 80 micrograms/kg s.c.
Description: Inhibition Of CCK Induced Gastric Emptying
Three fasted mice were dosed (p.o.) with the test compound. CCK8 (80 micrograms/kg s.c.) was administered within 60 minutes and charcoal meal (0.1 mL of 10% suspension) was given orally 5 minutes later. The animals were sacrificed within an additional 5 minutes.
Gastric emptying, defined as the presence of charcoal within the intestine beyond the pyloric sphincter, is inhibited by CCK8. Gastric emptying observed in more than 1 or 3 mice (greater than 1) indicates antagonism of CCK8.

[1] = guinea pig pancreatic membranes, 37° C., 30 min, IC50 from Hill analysis

Row | Compound | IC50 (Type-A CCK receptor) [nM] | IC50 (guinea pig acini) [nM] | IC50 (Type-A CCK receptor; [1]) [nM] | IC50 (Type-B CCK receptor) [nM] | Gastric emptying observed (mice out of three; more than 1 indicates antagonism of CCK8) (CCK8)
1 | CCCCCN(CCCCC)C(=O)[C@@H](CCC(=O)O)NC(=O)c1cc2ccccc2[nH]1 [Example 4, N-(2,-Indolylcarbonyl)-R-Glu-N^α,N^α -di-n-pentylamide] | 20 | 22 | – | – | –
2 | CCCCCN(CCCCC)C(=O)[C@H](CCC(=O)O)NC(=O)c1cc2ccccc2[nH]1 [Example 8, N-(2'-Indolylcarbonyl)-S-Glu-N^α,N^α -di-n-pentylamide] | – | 590 | 200 | – | –
3 | CCCCCN(CCCCC)C(=O)[C@@H](CCC(=O)O)NC(=O)c1c[nH]c2ccccc12 [Example 12, N-(3'-Indolylcarbonyl)-R-Glu-N^α,N^α -di-n-penylamide] | – | 830 | 260 | 3200 | –
4 | CCCCCN(CCCCC)C(=O)[C@@H](CCC(=O)O)NC(=O)c1cnc2ccccc2c1 [Example 15, N-(3'-Quinolylcarbonyl)-R-Glu-N^α,N^α -di-n-pentylamide] | 5.4 | 16 | – | 3500 | –
5 | CCCCCN(CCCCC)C(=O)[C@@H](CC(=O)O)NC(=O)c1cc2ccccc2[nH]1 [Example 19, N-(2'-Indolylcarbonyl)-R-Asp-N^α,N^α -di-n-pentylamide] | 27 | 55 | – | 2600 | –
6 | CCCCCN(CCCCC)C(=O)[C@@H](CCC(=O)OC)NC(=O)c1cc2ccccc2[nH]1 [Example 23, N-(2'-Indolylcarbonyl)-(γ-methyl ester)-R-Glu-di-n-pentylamide] | 98 | 1300 | – | 3600 | –
7 | O=C(O)CC[C@@H](NC(=O)c1cc2ccccc2[nH]1)C(=O)N(Cc1ccccc1)Cc1ccccc1 [Example 29, N-(2'-Indolylcarbonyl)-R-Glu-N^α,N^α -dibenzylamide] | 30 | 130 | – | 5100 | –
8 | CCCCCN(CCCCC)C(=O)[C@@H](CCC(=O)O)NC(=O)c1ccc2ncccc2c1 [Example 34, N-(6'-Quinolylcarbonyl)-R-Glu-N^α,N^α -d-n-pentylamide] | 30 | 53 | – | ~10000 | –
9 | O=C(O)CC[C@@H](NC(=O)c1cc2ccccc2[nH]1)C(=O)N(c1ccccc1)c1ccccc1 [Example 74, N-(2'-Indolylcarbonyl)-R-Glu-N^α,N^α -diphenylamide] | 210 | 1200 | – | 2000 | –
10 | CCCCCN(CCCCC)C(=O)[C@@H](CCC(=O)O)NC(=O)c1cnc2ccccc2c1 [Example 118, N-(3'-Quinolylcarbonyl)-R-Glu-N^α,N^α -di-n-pentylamideDicyclohexylamine salt] | – | – | – | – | three out of three
